Test results from ChEMBL document CHEMBL4732242 (Eur J Med Chem, 2021).

Tests used:
[1] = biological target: T1, Dual specificity tyrosine-phosphorylation-regulated kinase 2 (Homo sapiens, UniProt Q92630); assay: Inhibition of DYRK2 (unknown origin) by NanoBRET cellular target engagement assay
T1 sequence (Q92630 whole entry): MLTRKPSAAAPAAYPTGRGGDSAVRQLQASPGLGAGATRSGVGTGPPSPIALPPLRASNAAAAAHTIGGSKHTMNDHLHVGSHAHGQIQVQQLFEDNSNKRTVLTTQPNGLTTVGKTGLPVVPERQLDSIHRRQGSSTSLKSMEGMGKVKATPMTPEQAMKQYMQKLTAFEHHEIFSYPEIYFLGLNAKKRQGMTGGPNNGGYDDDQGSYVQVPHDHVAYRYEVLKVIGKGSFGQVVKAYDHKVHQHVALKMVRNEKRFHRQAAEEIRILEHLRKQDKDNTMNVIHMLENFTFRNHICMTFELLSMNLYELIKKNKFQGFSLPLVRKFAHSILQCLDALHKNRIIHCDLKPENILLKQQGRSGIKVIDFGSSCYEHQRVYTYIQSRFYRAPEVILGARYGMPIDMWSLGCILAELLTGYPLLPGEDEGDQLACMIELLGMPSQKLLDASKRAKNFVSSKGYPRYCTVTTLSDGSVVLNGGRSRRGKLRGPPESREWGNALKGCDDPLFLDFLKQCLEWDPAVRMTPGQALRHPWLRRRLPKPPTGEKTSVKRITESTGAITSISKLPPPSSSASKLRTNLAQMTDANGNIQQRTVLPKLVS

[2] = biological target: T2, Dual specificity protein kinase CLK3 (Homo sapiens, UniProt P49761); assay: Inhibition of CLK3 (unknown origin) by NanoBRET cellular target engagement assay
[3] = biological target: T3, Dual specificity protein kinase CLK2 (Homo sapiens, UniProt P49760); assay: Inhibition of CLK2 (unknown origin) by NanoBRET cellular target engagement assay
T3 sequence (P49760 whole entry): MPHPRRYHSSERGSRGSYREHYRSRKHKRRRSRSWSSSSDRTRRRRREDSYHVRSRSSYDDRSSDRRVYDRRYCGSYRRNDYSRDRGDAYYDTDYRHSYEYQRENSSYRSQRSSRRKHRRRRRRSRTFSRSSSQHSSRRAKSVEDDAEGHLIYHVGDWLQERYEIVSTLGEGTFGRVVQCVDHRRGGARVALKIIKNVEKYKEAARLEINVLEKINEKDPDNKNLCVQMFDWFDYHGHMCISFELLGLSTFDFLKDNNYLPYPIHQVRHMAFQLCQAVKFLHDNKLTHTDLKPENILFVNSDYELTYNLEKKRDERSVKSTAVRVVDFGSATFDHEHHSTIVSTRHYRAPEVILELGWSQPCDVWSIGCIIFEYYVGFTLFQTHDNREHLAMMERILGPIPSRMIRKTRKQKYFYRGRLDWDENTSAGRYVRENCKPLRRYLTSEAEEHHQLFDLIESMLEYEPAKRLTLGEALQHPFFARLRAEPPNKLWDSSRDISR

[4] = biological target: T4, Dual specificity protein kinase CLK4 (Homo sapiens, UniProt Q9HAZ1); assay: Inhibition of CLK4 (unknown origin) by NanoBRET cellular target engagement assay
[5] = biological target: Mitogen-activated protein kinase kinase kinase 10 (Homo sapiens, UniProt Q02779); assay: Inhibition of MLK2 (unknown origin) by NanoBRET cellular target engagement assay
[6] = biological target: T5, Dual specificity protein kinase CLK1 (Homo sapiens, UniProt P49759); assay: Inhibition of CLK1 (unknown origin) by NanoBRET cellular target engagement assay
T5 sequence (P49759 whole entry): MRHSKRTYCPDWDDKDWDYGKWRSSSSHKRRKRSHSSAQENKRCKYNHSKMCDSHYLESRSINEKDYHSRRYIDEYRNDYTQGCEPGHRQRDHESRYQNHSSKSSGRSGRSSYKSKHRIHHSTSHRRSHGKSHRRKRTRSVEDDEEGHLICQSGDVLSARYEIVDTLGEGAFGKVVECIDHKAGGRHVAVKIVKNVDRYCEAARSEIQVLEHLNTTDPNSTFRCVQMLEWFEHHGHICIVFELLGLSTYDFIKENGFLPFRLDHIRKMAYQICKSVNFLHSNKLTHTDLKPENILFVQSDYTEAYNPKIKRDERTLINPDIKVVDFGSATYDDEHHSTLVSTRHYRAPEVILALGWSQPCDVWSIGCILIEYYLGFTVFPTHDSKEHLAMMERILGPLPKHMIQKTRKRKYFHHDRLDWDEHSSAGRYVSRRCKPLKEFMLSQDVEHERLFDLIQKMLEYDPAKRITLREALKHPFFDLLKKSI

[7] = biological target: Mitogen-activated protein kinase kinase kinase 9 (Homo sapiens, UniProt P80192); assay: Inhibition of MLK1 (unknown origin) by NanoBRET cellular target engagement assay
[8] = biological target: T6, Homeodomain-interacting protein kinase 2 (Homo sapiens, UniProt Q9H2X6); assay: Inhibition of HIPK2 (unknown origin) by selectscreen kinase assay
[9] = biological target: T2, Dual specificity protein kinase CLK3; assay: Inhibition of human full length recombinant CLK3 using ERMRPRKRQGSVR substrate by radiometric scintillation assay
[10] = biological target: T7, Dual specificity tyrosine-phosphorylation-regulated kinase 1A (Homo sapiens, UniProt Q13627); assay: Inhibition of human full length recombinant DYRK1A using RRRFRPASPLRGPP substrate by radiometric scintillation assay
[11] = biological target: T1, Dual specificity tyrosine-phosphorylation-regulated kinase 2; assay: Inhibition of human full length recombinant DYRK2 using casein substrate by radiometric scintillation assay
[12] = biological target: T3, Dual specificity protein kinase CLK2; assay: Inhibition of human recombinant CLK2 using YRRAAVPPSPSLSR substrate by radiometric scintillation assay
[13] = biological target: T8, Homeodomain-interacting protein kinase 1 (Homo sapiens, UniProt Q86Z02); assay: Inhibition of human recombinant HIPK1 using myelin substrate by radiometric scintillation assay
T8 sequence (Q86Z02 whole entry): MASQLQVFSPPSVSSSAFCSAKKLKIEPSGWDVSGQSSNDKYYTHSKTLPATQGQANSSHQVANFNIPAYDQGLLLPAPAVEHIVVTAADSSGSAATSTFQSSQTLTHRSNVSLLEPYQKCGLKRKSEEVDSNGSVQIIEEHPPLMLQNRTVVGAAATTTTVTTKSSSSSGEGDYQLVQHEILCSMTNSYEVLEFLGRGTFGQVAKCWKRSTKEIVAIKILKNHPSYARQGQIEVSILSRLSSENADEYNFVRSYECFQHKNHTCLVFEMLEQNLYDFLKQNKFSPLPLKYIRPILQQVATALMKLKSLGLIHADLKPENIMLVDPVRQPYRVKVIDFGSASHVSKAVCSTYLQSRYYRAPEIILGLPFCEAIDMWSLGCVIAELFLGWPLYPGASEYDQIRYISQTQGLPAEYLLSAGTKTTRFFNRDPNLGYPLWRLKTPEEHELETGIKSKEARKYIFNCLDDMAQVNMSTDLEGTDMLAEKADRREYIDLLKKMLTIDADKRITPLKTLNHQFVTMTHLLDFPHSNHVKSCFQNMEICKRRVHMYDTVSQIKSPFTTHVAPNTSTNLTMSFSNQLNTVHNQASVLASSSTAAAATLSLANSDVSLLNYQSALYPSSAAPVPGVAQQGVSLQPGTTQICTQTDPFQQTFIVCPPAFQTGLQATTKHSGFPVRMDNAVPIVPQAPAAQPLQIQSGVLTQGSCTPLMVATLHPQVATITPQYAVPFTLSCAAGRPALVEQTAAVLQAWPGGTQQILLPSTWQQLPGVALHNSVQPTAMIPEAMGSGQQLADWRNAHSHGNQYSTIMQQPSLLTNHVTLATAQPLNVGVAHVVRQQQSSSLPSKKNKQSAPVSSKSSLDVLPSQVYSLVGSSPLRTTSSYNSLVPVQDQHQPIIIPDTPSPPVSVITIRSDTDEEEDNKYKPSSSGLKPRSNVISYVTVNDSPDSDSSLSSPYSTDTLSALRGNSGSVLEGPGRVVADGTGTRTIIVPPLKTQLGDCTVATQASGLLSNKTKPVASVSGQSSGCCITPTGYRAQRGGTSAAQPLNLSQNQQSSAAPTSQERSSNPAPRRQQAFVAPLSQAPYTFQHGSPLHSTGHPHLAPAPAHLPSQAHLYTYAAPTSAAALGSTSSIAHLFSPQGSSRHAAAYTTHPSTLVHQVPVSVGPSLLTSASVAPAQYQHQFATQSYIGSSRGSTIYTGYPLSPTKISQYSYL

[14] = biological target: T9, Dual specificity tyrosine-phosphorylation-regulated kinase 1B (Homo sapiens, UniProt Q9Y463); assay: Inhibition of human full length recombinant DYRK1B using RRRFRPASPLRGPP substrate by radiometric scintillation assay
T9 sequence (Q9Y463 whole entry): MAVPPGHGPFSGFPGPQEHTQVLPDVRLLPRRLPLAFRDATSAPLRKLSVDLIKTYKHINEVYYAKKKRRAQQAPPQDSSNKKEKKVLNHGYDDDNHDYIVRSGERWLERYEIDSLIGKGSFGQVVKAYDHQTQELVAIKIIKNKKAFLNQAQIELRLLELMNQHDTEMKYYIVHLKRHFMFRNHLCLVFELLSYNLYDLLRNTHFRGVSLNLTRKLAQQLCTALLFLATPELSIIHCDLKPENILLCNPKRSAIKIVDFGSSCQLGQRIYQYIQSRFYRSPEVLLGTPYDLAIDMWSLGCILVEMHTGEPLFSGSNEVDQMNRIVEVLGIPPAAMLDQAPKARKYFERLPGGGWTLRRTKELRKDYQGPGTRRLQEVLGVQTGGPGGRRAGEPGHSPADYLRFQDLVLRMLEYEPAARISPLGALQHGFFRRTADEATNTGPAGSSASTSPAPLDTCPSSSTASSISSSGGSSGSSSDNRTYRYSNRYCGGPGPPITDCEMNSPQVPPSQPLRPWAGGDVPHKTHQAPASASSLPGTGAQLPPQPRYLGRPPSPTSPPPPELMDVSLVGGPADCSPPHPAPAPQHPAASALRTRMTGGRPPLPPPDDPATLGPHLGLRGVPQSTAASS

[15] = biological target: T10, Homeodomain-interacting protein kinase 3 (Homo sapiens, UniProt Q9H422); assay: Inhibition of human recombinant HIPK3 using myelin substrate by radiometric scintillation assay
T10 sequence (Q9H422 whole entry): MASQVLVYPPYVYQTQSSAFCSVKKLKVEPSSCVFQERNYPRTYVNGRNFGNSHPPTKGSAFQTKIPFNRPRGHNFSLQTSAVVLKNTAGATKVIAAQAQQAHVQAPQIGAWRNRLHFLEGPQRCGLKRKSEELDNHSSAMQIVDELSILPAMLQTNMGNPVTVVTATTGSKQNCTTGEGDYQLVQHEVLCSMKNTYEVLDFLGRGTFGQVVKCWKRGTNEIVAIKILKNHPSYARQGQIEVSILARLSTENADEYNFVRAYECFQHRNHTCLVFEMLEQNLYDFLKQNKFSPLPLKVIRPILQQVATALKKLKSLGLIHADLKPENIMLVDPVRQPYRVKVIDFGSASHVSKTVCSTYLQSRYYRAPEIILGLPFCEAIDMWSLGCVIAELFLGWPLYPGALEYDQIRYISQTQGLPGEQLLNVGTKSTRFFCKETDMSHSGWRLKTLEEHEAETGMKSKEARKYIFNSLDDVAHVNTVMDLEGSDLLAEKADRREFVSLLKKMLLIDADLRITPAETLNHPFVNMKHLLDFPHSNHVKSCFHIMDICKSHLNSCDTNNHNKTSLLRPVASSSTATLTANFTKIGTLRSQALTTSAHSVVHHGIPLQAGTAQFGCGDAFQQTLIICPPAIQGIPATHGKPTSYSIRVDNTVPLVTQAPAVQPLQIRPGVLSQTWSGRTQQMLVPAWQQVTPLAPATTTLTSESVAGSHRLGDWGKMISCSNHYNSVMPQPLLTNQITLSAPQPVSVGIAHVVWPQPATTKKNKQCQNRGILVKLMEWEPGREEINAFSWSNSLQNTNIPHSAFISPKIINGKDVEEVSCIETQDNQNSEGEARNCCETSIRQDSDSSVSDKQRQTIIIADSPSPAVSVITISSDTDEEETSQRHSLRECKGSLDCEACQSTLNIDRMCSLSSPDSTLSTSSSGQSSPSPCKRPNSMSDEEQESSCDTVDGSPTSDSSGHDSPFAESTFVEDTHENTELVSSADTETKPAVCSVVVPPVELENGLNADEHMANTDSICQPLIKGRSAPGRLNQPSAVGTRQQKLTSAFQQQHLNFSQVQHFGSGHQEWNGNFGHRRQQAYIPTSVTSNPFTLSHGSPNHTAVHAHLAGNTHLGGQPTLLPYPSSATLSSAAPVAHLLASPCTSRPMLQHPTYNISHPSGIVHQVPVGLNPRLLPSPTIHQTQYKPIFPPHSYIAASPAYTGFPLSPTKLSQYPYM

[16] = biological target: T5, Dual specificity protein kinase CLK1; assay: Inhibition of human recombinant CLK1 using ERMRPRKRQGSVR substrate by radiometric scintillation assay
[17] = biological target: T6, Homeodomain-interacting protein kinase 2; assay: Inhibition of human recombinant HIPK2 using myelin substrate by radiometric scintillation assay
[18] = biological target: T4, Dual specificity protein kinase CLK4; assay: Inhibition of human recombinant CLK4 using YRRAAVPPSPSLS substrate by radiometric scintillation assay
MCF7 = assay: Cytotoxicity against human MCF7 cells assessed as reduction in cell viability incubated for 48 hrs by CyQuant assay; type: functional, cell-based; conditions: MCF7, 48 h
[19] = biological target: T7, Dual specificity tyrosine-phosphorylation-regulated kinase 1A; assay: Inhibition of DYRK1A (unknown origin) by NanoBRET cellular target engagement assay
[20] = biological target: Cyclin-dependent kinase-like 3 (Homo sapiens, UniProt Q8IVW4); assay: Inhibition of CDKL3 (unknown origin) by NanoBRET cellular target engagement assay
Chain of Cyclin-dependent kinase-like 3 (Q8IVW4 whole entry): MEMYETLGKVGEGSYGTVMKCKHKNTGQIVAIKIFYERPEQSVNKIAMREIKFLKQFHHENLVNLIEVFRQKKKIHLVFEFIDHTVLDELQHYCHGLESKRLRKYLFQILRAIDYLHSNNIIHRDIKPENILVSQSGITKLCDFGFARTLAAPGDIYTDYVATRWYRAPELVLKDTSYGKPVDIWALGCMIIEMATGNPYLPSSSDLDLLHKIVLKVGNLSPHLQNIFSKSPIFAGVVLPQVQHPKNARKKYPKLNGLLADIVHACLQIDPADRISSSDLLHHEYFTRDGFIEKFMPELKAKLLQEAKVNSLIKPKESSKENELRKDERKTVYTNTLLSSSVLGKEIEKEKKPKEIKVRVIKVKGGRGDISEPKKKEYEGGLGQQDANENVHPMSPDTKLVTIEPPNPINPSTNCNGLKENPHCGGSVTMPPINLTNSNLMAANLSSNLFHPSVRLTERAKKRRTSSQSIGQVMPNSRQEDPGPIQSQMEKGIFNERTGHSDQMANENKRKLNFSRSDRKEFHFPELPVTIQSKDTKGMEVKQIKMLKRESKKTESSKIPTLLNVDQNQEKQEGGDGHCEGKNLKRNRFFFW

[21] = biological target: Mitogen-activated protein kinase kinase kinase 11 (Homo sapiens, UniProt Q16584); assay: Inhibition of MLK3 (unknown origin) by NanoBRET cellular target engagement assay
[22] = biological target: T9, Dual specificity tyrosine-phosphorylation-regulated kinase 1B; assay: Inhibition of DYRK1B (unknown origin) by NanoBRET cellular target engagement assay
[23] = biological target: T6, Homeodomain-interacting protein kinase 2; assay: Inhibition of HIPK2 (unknown origin)
[24] = biological target: T10, Homeodomain-interacting protein kinase 3; assay: Inhibition of HIPK3 (unknown origin)
[25] = biological target: T8, Homeodomain-interacting protein kinase 1; assay: Inhibition of HIPK1 (unknown origin)
[26] = biological target: T11, Homeodomain-interacting protein kinase 4 (Homo sapiens, UniProt Q8NE63); assay: Inhibition of HIPK4 (unknown origin)
T11 sequence (Q8NE63 whole entry): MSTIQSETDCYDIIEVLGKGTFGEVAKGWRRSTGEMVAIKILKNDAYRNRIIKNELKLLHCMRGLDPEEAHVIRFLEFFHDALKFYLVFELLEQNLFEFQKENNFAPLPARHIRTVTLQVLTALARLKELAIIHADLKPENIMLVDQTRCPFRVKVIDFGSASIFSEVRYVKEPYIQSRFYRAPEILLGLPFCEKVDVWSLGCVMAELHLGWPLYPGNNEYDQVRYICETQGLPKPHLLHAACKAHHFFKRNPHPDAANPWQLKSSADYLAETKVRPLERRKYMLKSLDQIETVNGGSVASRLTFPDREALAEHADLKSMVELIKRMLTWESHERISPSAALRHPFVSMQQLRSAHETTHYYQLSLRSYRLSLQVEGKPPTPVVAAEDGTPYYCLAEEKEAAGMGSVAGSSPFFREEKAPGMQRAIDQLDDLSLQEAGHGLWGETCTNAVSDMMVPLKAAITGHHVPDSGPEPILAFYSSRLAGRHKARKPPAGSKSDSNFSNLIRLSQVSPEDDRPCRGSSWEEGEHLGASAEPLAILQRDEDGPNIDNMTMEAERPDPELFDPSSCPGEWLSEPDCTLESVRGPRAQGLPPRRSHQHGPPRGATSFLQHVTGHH

Compound	IC50 [9]	IC50 [10]	IC50 [11]	IC50 [12]	IC50 [13]	IC50 [14]	IC50 [15]	IC50 [16]	IC50 [17]	IC50 [18]	other results
COC(=N)c1nc2ccc3ncnc(Nc4ccc(OC)cc4F)c3c2s1	–	–	–	–	–	–	–	–	–	–	IC50 [1]: > 3 µM; IC50 [2]: > 3 µM; IC50 [3]: > 3 µM; IC50 [4]: > 3 µM; IC50 [5]: > 3 µM; IC50 [6]: > 3 µM; IC50 [7]: > 3 µM
O=C1NC(=O)/C(=C\c2c[nH]c(=O)c(-c3ccc(N4CCNCC4)nc3)c2)S1	–	–	–	–	–	–	–	–	–	–	IC50 [8]: 0.074 µM
Cn1cc(-c2ccc3occ(-c4ccc(C(C)(C)C)cc4)c3n2)cn1	> 3 µM	> 3 µM	> 3 µM	> 3 µM	> 3 µM	> 3 µM	> 3 µM	> 3 µM	> 3 µM	> 3 µM	–
CC(C)(C)c1ccc(-c2coc3ccc(-c4cnsc4)nc23)cc1	> 3 µM	> 3 µM	> 3 µM	> 3 µM	> 3 µM	> 3 µM	> 3 µM	> 3 µM	> 3 µM	> 3 µM	–
Cn1cc(-c2ccc3occ(-c4cccc(-c5ccncc5)c4)c3n2)cn1	–	–	–	–	–	–	–	–	–	–	IC50 (MCF7): 4.6 µM
CC(C)(C)c1ccc(-c2coc3ccc(-c4cn[nH]c4)nc23)cc1	> 3 µM	> 3 µM	> 3 µM	1.43 µM	0.248 µM	> 3 µM	0.476 µM	0.946 µM	0.119 µM	1.47 µM	IC50 [1]: > 50 µM; IC50 [19]: 43 µM; IC50 [2]: 43 µM; IC50 [20]: > 50 µM; IC50 [3]: 18 µM; IC50 [21]: > 50 µM; IC50 [4]: 46 µM; IC50 [5]: > 50 µM; IC50 [6]: > 50 µM; IC50 [7]: > 50 µM; IC50 [22]: > 50 µM
CC(C)(C)c1ccc(-c2coc3ccc(-c4nn[nH]n4)nc23)cc1	> 3 µM	> 3 µM	> 3 µM	> 3 µM	0.545 µM	> 3 µM	0.72 µM	> 3 µM	0.357 µM	> 3 µM	–
CC(C)(C)c1ccc(-c2coc3ccc(-c4cn[nH]n4)nc23)cc1	> 3 µM	> 3 µM	> 3 µM	> 3 µM	0.285 µM	> 3 µM	0.283 µM	> 3 µM	0.123 µM	> 3 µM	IC50 [1]: > 50 µM; IC50 [19]: > 50 µM; IC50 [2]: > 50 µM; IC50 [20]: > 50 µM; IC50 [3]: > 50 µM; IC50 [21]: > 50 µM; IC50 [4]: 40 µM; IC50 [5]: > 50 µM; IC50 [6]: > 50 µM; IC50 [7]: 15 µM; IC50 [22]: > 50 µM
Cn1cc(-c2ccc3occ(-c4cccc(-c5cn[nH]c5)c4)c3n2)cn1	1.59 µM	0.139 µM	> 3 µM	0.037 µM	0.177 µM	1.3 µM	0.164 µM	0.016 µM	0.102 µM	0.019 µM	IC50 (MCF7): 30 µM
Cn1cc(-c2ccc3occ(-c4ccc(C(C)(C)C)cc4)c3n2)nn1	> 3 µM	> 3 µM	> 3 µM	> 3 µM	> 3 µM	> 3 µM	> 3 µM	> 3 µM	> 3 µM	> 3 µM	–
Cn1ccc(-c2ccc3occ(-c4ccc(C(C)(C)C)cc4)c3n2)n1	> 3 µM	> 3 µM	> 3 µM	> 3 µM	> 3 µM	> 3 µM	> 3 µM	> 3 µM	> 3 µM	> 3 µM	–
CC(C)(C)c1ccc(-c2coc3ccc(-c4cnn(CCN5CCOCC5)c4)nc23)cc1	> 3 µM	> 3 µM	> 3 µM	> 3 µM	> 3 µM	> 3 µM	> 3 µM	> 3 µM	> 3 µM	> 3 µM	–
Cn1cc(-c2cccc(-c3coc4ccc(-c5cnn(C)c5)nc34)c2)cn1	> 3 µM	0.147 µM	0.771 µM	0.016 µM	0.209 µM	2.42 µM	0.125 µM	0.018 µM	0.07 µM	0.017 µM	IC50 (MCF7): > 100 µM
CC(C)(C)c1ccc(-c2coc3ccc(-c4cc[nH]n4)nc23)cc1	> 3 µM	> 3 µM	> 3 µM	> 3 µM	> 3 µM	> 3 µM	> 3 µM	> 3 µM	1.28 µM	> 3 µM	–
O=C(Nc1c[nH]nc1-c1nc2cc(CN3CCOCC3)ccc2[nH]1)NC1CC1 [AT-9283]	–	–	–	–	–	–	–	–	–	–	IC50 [1]: 0.57 µM; IC50 [20]: 1.1 µM
COc1cc2c(Oc3ccc(NC(=O)C4(C(=O)Nc5ccc(F)cc5)CC4)cc3F)ccnc2cc1OCCCN1CCOCC1 [FORETINIB]	–	–	–	–	–	–	–	–	–	–	IC50 [23]: 0.1 µM; IC50 [24]: 0.1 µM
Cc1[nH]c(/C=C2\C(=O)Nc3ccc(S(=O)(=O)Cc4c(Cl)cccc4Cl)cc32)c(C)c1C(=O)N1CCC[C@@H]1CN1CCCC1 [PHA-665752]	–	–	–	–	–	–	–	–	–	–	IC50 [25]: 0.1 µM; IC50 [26]: 0.1 µM; IC50 [24]: 0.1 µM
CN(C)C[C@@H]1CCn2cc(c3ccccc32)C2=C(C(=O)NC2=O)c2cn(c3ccccc23)CCO1 [RUBOXISTAURIN]	–	–	–	–	–	–	–	–	–	–	IC50 [24]: 0.1 µM
